According to ChEMBL document CHEMBL1138518 (J Med Chem, 2009):

Tested on: SK-BR-3
Assay: Cytotoxicity against human SKBR3 cells after 72 hrs by celltiter-glo assay
Type: functional, cell-based
Details: Homo sapiens, SK-BR-3, 72 h

Row | Compound | IC50 [µM]
1 | CNCCNC1=C2C[C@@H](C)C[C@H](OC)[C@H](OC(=O)CN)[C@@H](C)/C=C(\C)[C@H](OC(N)=O)[C@@H](OC)/C=C\C=C(/C)C(=O)NC(=CC1=O)C2=O (stereo in doubt) | 0.34
2 | COC1=C2C[C@@H](C)C[C@H](OC)[C@H](OC(=O)CCN)[C@@H](C)/C=C(\C)[C@H](OC(N)=O)[C@@H](OC)/C=C\C=C(/C)C(=O)NC(=CC1=O)C2=O (stereo in doubt) | 1.7
3 | CO[C@H]1/C=C\C=C(/C)C(=O)NC2=CC(=O)C(NCCN(C)C)=C(C[C@@H](C)C[C@H](OC)[C@H](NCC(F)(F)F)[C@@H](C)/C=C(\C)[C@@H]1OC(N)=O)C2=O (stereo in doubt) | 0.27
4 | C=CCNC1=C2C[C@@H](C)C[C@H](OC)[C@H](OC(=O)CCN)[C@@H](C)/C=C(\C)[C@H](OC(N)=O)[C@@H](OC)/C=C\C=C(/C)C(=O)NC(=CC1=O)C2=O (stereo in doubt) | 1.8
5 | CO[C@H]1/C=C\C=C(/C)C(=O)NC2=CC(=O)C(NCCN(C)C)=C(C[C@@H](C)C[C@H](OC)[C@H](NCC(F)F)[C@@H](C)/C=C(\C)[C@@H]1OC(N)=O)C2=O (stereo in doubt) | 0.37
6 | CO[C@H]1[C@@H](OC)C[C@H](C)CC2=C(N)C(=O)C=C(NC(=O)/C(C)=C/C=C\[C@H](OC)[C@@H](OC(N)=O)/C(C)=C/[C@@H]1C)C2=O | 0.084
7 | CO[C@H]1/C=C\C=C(/C)C(=O)NC2=CC(=O)C(NCCN(C)C)=C(C[C@@H](C)C[C@H](OC)[C@H](N)[C@@H](C)/C=C(\C)[C@@H]1OC(N)=O)C2=O (stereo in doubt) | 0.415
8 | COC1=C2C[C@@H](C)C[C@H](OC)[C@H](OC(=O)CCCN)[C@@H](C)/C=C(\C)[C@H](OC(N)=O)[C@@H](OC)/C=C\C=C(/C)C(=O)NC(=CC1=O)C2=O (stereo in doubt) | > 1

Biological target: Heat shock protein HSP 90-beta (Homo sapiens, UniProt P08238)
Sequence (P08238 whole entry): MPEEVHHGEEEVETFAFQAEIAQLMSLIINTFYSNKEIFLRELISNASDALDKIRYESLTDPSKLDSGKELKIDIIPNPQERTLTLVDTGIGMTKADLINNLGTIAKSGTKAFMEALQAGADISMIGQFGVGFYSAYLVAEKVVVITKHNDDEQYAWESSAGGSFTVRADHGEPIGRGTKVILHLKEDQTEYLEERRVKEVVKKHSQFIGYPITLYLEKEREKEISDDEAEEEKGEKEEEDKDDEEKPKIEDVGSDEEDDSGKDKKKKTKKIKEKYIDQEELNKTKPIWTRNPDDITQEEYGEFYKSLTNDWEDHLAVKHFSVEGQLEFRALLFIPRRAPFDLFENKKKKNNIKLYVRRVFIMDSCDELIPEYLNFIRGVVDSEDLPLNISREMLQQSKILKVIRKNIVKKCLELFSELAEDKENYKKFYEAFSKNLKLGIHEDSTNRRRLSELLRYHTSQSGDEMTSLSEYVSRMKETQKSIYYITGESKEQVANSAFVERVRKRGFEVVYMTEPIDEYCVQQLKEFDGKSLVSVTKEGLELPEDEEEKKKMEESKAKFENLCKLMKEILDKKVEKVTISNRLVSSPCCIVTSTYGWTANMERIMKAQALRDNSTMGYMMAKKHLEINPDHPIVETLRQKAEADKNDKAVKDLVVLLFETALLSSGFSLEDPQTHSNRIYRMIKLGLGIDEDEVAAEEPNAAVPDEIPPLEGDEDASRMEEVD
Assay: Binding affinity to human recombinant HSP90
Details: not given

Row | Compound | Kd [µM]
9 | C=CCNC1=C2C[C@@H](C)C[C@H](OC)[C@H](OC(=O)CCN)[C@@H](C)/C=C(\C)[C@H](OC(N)=O)[C@@H](OC)/C=C\C=C(/C)C(=O)NC(=CC1=O)C2=O (stereo in doubt) | > 25
10 | CO[C@H]1/C=C\C=C(/C)C(=O)NC2=CC(=O)C(NCCN(C)C)=C(C[C@@H](C)C[C@H](OC)[C@H](NCC(F)F)[C@@H](C)/C=C(\C)[C@@H]1OC(N)=O)C2=O (stereo in doubt) | 2.9
11 | CO[C@H]1[C@@H](OC)C[C@H](C)CC2=C(N)C(=O)C=C(NC(=O)/C(C)=C/C=C\[C@H](OC)[C@@H](OC(N)=O)/C(C)=C/[C@@H]1C)C2=O | 0.32
12 | CO[C@H]1/C=C\C=C(/C)C(=O)NC2=CC(=O)C(NCCN(C)C)=C(C[C@@H](C)C[C@H](OC)[C@H](N)[C@@H](C)/C=C(\C)[C@@H]1OC(N)=O)C2=O (stereo in doubt) | > 25

Next, values leading:

Row | Kd [µM] | Compound
13 | > 25 | CNCCNC1=C2C[C@@H](C)C[C@H](OC)[C@H](OC(=O)CN)[C@@H](C)/C=C(\C)[C@H](OC(N)=O)[C@@H](OC)/C=C\C=C(/C)C(=O)NC(=CC1=O)C2=O (stereo in doubt)
14 | > 25 | COC1=C2C[C@@H](C)C[C@H](OC)[C@H](OC(=O)CCN)[C@@H](C)/C=C(\C)[C@H](OC(N)=O)[C@@H](OC)/C=C\C=C(/C)C(=O)NC(=CC1=O)C2=O (stereo in doubt)
15 | 4 | CO[C@H]1/C=C\C=C(/C)C(=O)NC2=CC(=O)C(NCCN(C)C)=C(C[C@@H](C)C[C@H](OC)[C@H](NCC(F)(F)F)[C@@H](C)/C=C(\C)[C@@H]1OC(N)=O)C2=O (stereo in doubt)
16 | > 10 | COC1=C2C[C@@H](C)C[C@H](OC)[C@H](OC(=O)CCCN)[C@@H](C)/C=C(\C)[C@H](OC(N)=O)[C@@H](OC)/C=C\C=C(/C)C(=O)NC(=CC1=O)C2=O (stereo in doubt)

Tested on: not listed separately
Assay: Chemical stability assessed as half life at pH 7.75
Type: physicochemical
Details: buffer

Row | half-life [h] | Compound
17 | 74 | CNCCNC1=C2C[C@@H](C)C[C@H](OC)[C@H](OC(=O)CN)[C@@H](C)/C=C(\C)[C@H](OC(N)=O)[C@@H](OC)/C=C\C=C(/C)C(=O)NC(=CC1=O)C2=O (stereo in doubt)
18 | 200 | COC1=C2C[C@@H](C)C[C@H](OC)[C@H](OC(=O)CCN)[C@@H](C)/C=C(\C)[C@H](OC(N)=O)[C@@H](OC)/C=C\C=C(/C)C(=O)NC(=CC1=O)C2=O (stereo in doubt)
19 | 130 | C=CCNC1=C2C[C@@H](C)C[C@H](OC)[C@H](OC(=O)CCN)[C@@H](C)/C=C(\C)[C@H](OC(N)=O)[C@@H](OC)/C=C\C=C(/C)C(=O)NC(=CC1=O)C2=O (stereo in doubt)
20 | > 350 | COC1=C2C[C@@H](C)C[C@H](OC)[C@H](OC(=O)CCCN)[C@@H](C)/C=C(\C)[C@H](OC(N)=O)[C@@H](OC)/C=C\C=C(/C)C(=O)NC(=CC1=O)C2=O (stereo in doubt)

Tested on: not listed separately
Assay: Dissociation constant, pKa of the compound
Type: physicochemical
Details: not given

Row | pKa | Compound
21 | 5.7 | CO[C@H]1/C=C\C=C(/C)C(=O)NC2=CC(=O)C(NCCN(C)C)=C(C[C@@H](C)C[C@H](OC)[C@H](NCC(F)(F)F)[C@@H](C)/C=C(\C)[C@@H]1OC(N)=O)C2=O (stereo in doubt)
22 | 9.2 | CO[C@H]1/C=C\C=C(/C)C(=O)NC2=CC(=O)C(NCCN(C)C)=C(C[C@@H](C)C[C@H](OC)[C@H](N)[C@@H](C)/C=C(\C)[C@@H]1OC(N)=O)C2=O (stereo in doubt)

Row | Compound | pKa
23 | CO[C@H]1/C=C\C=C(/C)C(=O)NC2=CC(=O)C(NCCN(C)C)=C(C[C@@H](C)C[C@H](OC)[C@H](NCC(F)F)[C@@H](C)/C=C(\C)[C@@H]1OC(N)=O)C2=O (stereo in doubt) | 7.5

Tested on: MCF7
Assay: Cytotoxicity against human MCF7 cells after 72 hrs by celltiter-glo assay
Type: functional, cell-based
Details: MCF7, 72 h

Row | Compound | IC50 [µM]
24 | CO[C@H]1[C@@H](OC)C[C@H](C)CC2=C(N)C(=O)C=C(NC(=O)/C(C)=C/C=C\[C@H](OC)[C@@H](OC(N)=O)/C(C)=C/[C@@H]1C)C2=O | 0.35

Tested on: SK-OV-3
Assay: Cytotoxicity against human SKOV3 cells after 72 hrs by celltiter-glo assay
Type: functional, cell-based
Details: SK-OV-3, 72 h

Row | Compound | IC50 [µM]
25 | CO[C@H]1[C@@H](OC)C[C@H](C)CC2=C(N)C(=O)C=C(NC(=O)/C(C)=C/C=C\[C@H](OC)[C@@H](OC(N)=O)/C(C)=C/[C@@H]1C)C2=O | 0.2

Tested on: A549
Assay: Cytotoxicity against human A549 cells after 72 hrs by celltiter-glo assay
Type: functional, cell-based
Details: A549, 72 h

Row | Compound | IC50 [µM]
26 | CO[C@H]1[C@@H](OC)C[C@H](C)CC2=C(N)C(=O)C=C(NC(=O)/C(C)=C/C=C\[C@H](OC)[C@@H](OC(N)=O)/C(C)=C/[C@@H]1C)C2=O | 0.037

Tested on: CCRF-CEM
Assay: Cytotoxicity against human CCRF-CEM cells after 72 hrs by celltiter-96 aqueous one solution assay
Type: functional, cell-based
Details: not given

Row | Compound | IC50 [µM]
27 | CO[C@H]1[C@@H](OC)C[C@H](C)CC2=C(N)C(=O)C=C(NC(=O)/C(C)=C/C=C\[C@H](OC)[C@@H](OC(N)=O)/C(C)=C/[C@@H]1C)C2=O | 0.25

Tested on: CCRF-CEM
Assay: Cytotoxicity against human paclitaxel-resistant CCRF-CEM cells after 72 hrs by celltiter-96 aqueous one solution assay
Type: functional, cell-based
Details: not given

Row | Compound | IC50 [µM]
28 | CO[C@H]1[C@@H](OC)C[C@H](C)CC2=C(N)C(=O)C=C(NC(=O)/C(C)=C/C=C\[C@H](OC)[C@@H](OC(N)=O)/C(C)=C/[C@@H]1C)C2=O | 0.85
